Measured values published in patent publication US9586931B2 (Merck Sharp & Dohme Corp., priority 2012, dated 2017).
“And” between values parts separate entries of the source, which are not always exact repeats. Equal values may be shown once.

The compounds below were run against T1, recombinant human GST-Syk (Homo sapiens, UniProt P43405) (assay: Homogeneous Time-Resolved Fluorescence (HTRF) assay for the recombinant human Syk enzyme). Conditions: recombinant human GST-Syk 5 pM, ATP 25 μM, 10-dose titration 10 μM to 0.508 nM; read-out: rhSYK Activity IC50.
T1 construct: purchased Carna Biosciences 08-176
Format: biochemical
In short: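 Detection used time-resolved fluorescence 30 min after adding a quench mix (40 mM EDTA, 15 mM Tris pH 7.5, 0.01% Tween 20) containing 2 nM Europium anti-pTyr antibody and 70 nM streptavidin-APC. This followed 45 min of room-temperature peptide phosphorylation by recombinant GST-tagged human Syk.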

Structure (SMILES) | IC50
Cc1cc(Nc2cc(C(F)F)ccn2)nc(-c2cn(CC(C)(O)CO)nn2)c1 (stereo not drawn) [Example 21.40, 3-(4-(6-((4-(difluoromethyl)pyridin-2-yl)amino)-4-methylpyridin-2-yl)-1H-1,2,3-triazol-1-yl)-2-methylpropane-1,2-diol] | 5.9 nM
Cc1ccnc(Nc2cc(C)cc(-c3cn(CCO)nn3)n2)c1 [Example 5.18, 2-(4-{4-methyl-6-[(4-methylpyridin-2-yl)amino]pyridin-2-yl}-1H-1,2,3-triazol-1-yl)ethanol] | 154 nM
Cc1cc(Nc2nccc(C(F)(F)F)n2)cc(-c2cn(CCS(C)(=O)=O)nn2)c1 [Example 5.62, N-(3-methyl-5-{1-[2-(methylsulfonyl)ethyl]-1H-1,2,3-triazol-4-yl}phenyl)-4-(trifluoromethyl)pyrimidin-2-amine] | 46.4 nM
Cc1cc(Nc2nccc(C(F)(F)F)n2)cc(-c2cn(CC(=O)N3[C@H](C)COC[C@@H]3C)nn2)c1 [Example 5.65, N-[3-(1-{2-[(cis)-3,5-dimethylmorpholin-4-yl]-2-oxoethyl}-1H-1,2,3-triazol-4-yl)-5-methylphenyl]-4-(trifluoromethyl)pyrimidin-2-amine] | 122 nM
Cc1cc(Nc2nccc(C(F)(F)F)n2)cc(-c2ncnn2C[C@H](O)CO)c1 [Example 2.15, (2S)-3-[5-(3-methyl-5-{[4-(trifluoromethyl)pyrimidin-2-yl]amino}phenyl)-1H-1,2,4-triazol-1-yl]propane-1,2-diol] | 3150 nM
COC(=O)c1ccc(C(CO)n2cc(-c3cc(C)cc(Nc4cc(C(F)(F)F)ccn4)n3)nn2)cc1 (stereo not drawn) [Example 4.16, methyl 4-{2-hydroxy-1-[4-(4-methyl-6-{[4-(trifluoromethyl)pyridin-2-yl]amino}pyridin-2-yl)-1H-1,2,3-triazol-1-yl]ethyl}benzoate] | 40.3 nM
Cc1cc(Nc2nccc(C(F)(F)F)n2)cc(-c2cn(C[C@H](O)CC#N)nn2)c1 [Example 5.98, (3R)-3-hydroxy-4-[4-(3-methyl-5-{[4-(trifluoromethyl)pyrimidin-2-yl]amino}phenyl)-1H-1,2,3-triazol-1-yl]butanenitrile] | 20 nM
Cc1cc(Nc2nccc(C(F)F)n2)cc(-c2cn(CC(C)(O)CO)nn2)c1 (single isomer, unassigned) [Example 21.7, 3-[4-(3-{[4-(difluoromethyl)pyrimidin-2-yl]amino}-5-methylphenyl)-1H-1,2,3-triazol-1-yl]-2-methylpropane-1,2-diol] | 7.2 nM
C=C(C)Cn1cc(-c2cc(C)cc(Nc3cc(C(F)(F)F)ccn3)n2)nn1 [Example 5.40, 4-methyl-6-[1-(2-methylprop-2-en-1-yl)-1H-1,2,3-triazol-4-yl]-N-[4-(trifluoromethyl)pyridin-2-yl]pyridin-2-amine] | 28.9 nM
COC(=O)c1ccc(C(O)Cn2cc(-c3cc(C)cc(Nc4cc(C(F)(F)F)ccn4)n3)nn2)cc1 (stereo not drawn) [Example 4.17, methyl 4-{1-hydroxy-2-[4-(4-methyl-6-{[4-(trifluoromethyl)pyridin-2-yl]amino}pyridin-2-yl)-1H-1,2,3-triazol-1-yl]ethyl}benzoate] | 26.6 nM
Cc1cc(Nc2cc(C(F)(F)F)ccn2)nc(-c2cn(C(CO)c3ccc(C(=O)O)cc3)nn2)c1 (stereo not drawn) [Example 3.17, 4-{2-hydroxy-1-[4-(4-methyl-6-{[4-(trifluoromethyl)pyridin-2-yl]amino}pyridin-2-yl)-1H-1,2,3-triazol-1-yl]ethyl}benzoic acid] | 0.1 nM
Cc1cc(Nc2cc(C(F)F)ccn2)nc(-c2cn(C(C)C3CNC(=O)O3)nn2)c1 (single isomer, unassigned) [Example 7.11, 5-(1-(4-(6-((4-(difluoromethyl)pyridin-2-yl)amino)-4-methylpyridin-2-yl)-1H-1,2,3-triazol-1-yl)ethyl)oxazolidin-2-one] | 1.4 nM
Cc1cc(Nc2nccc(C(F)(F)F)n2)cc(-c2cn(CC(C)(O)CO)nn2)c1 (single isomer, unassigned) [Example 21.3, 2-methyl-3-[4-(3-methyl-5-{[4-(trifluoromethyl)pyrimidin-2-yl]amino}phenyl)-1H-1,2,3-triazol-1-yl]propane-1,2-diol] | 7 nM
Cc1cc(Nc2nccc(C(F)(F)F)n2)cc(-c2cn(CC(C)(O)C(C)(C)O)nn2)c1 (stereo not drawn) [Example 21.19, 2,3-dimethyl-1-[4-(3-methyl-5-{[4-(trifluoromethyl)pyrimidin-2-yl]amino}phenyl)-1H-1,2,3-triazol-1-yl]butane-2,3-diol] | 29.3 nM
Cc1cc(Nc2nccc(C(F)(F)F)n2)cc(-n2cc(C3(O)CCNC(=O)CC3)nn2)c1 (stereo not drawn) [Example 11.4, 5-hydroxy-5-[1-(3-methyl-5-{[4-(trifluoromethyl)pyrimidin-2-yl]amino}phenyl)-1H-1,2,3-triazol-4-yl]azepan-2-one] | 161 nM
Cc1cc(Nc2cc(C(F)(F)F)ccn2)nc(-c2cn(CC(O)C(O)c3ccccc3)nn2)c1 (stereo not drawn) [Example 10.1, 3-(4-(4-Methyl-6-((4-(trifluoromethyl)pyridin-2-yl)amino)pyridin-2-yl)-1H-1,2,3-triazol-1-yl)-1-phenylpropane-1,2-diol] | 8.8 nM
COc1ccc(OC)c(C(O)C(C)NC(=O)C(C)n2cc(-c3cc(C)cc(Nc4cc(C(F)(F)F)ccn4)n3)nn2)c1 (stereo not drawn) [Example 1.38, N-[2-(2,5-dimethoxyphenyl)-2-hydroxy-1-methylethyl]-2-[4-(4-methyl-6-{[4-(trifluoromethyl)pyridin-2-yl]amino}pyridin-2-yl)-1H-1,2,3-triazol-1-yl]propanamide] | 635 nM
Cc1cc(Nc2cc(C(F)(F)F)ccn2)nc(-c2cn(Cc3nnn[nH]3)nn2)c1 [Example 5.109, 4-methyl-6-[1-(1H-tetrazol-5-ylmethyl)-1H-1,2,3-triazol-4-yl]-N-[4-(trifluoromethyl)pyridin-2-yl]pyridin-2-amine] | 12.6 nM
Cc1cc(Nc2cc(C(F)(F)F)ccn2)nc(-c2cn(C[C@H](O)CO)nn2)c1 [Example 5.7, (2S)-3-[4-(4-methyl-6-{[4-(trifluoromethyl)pyridin-2-yl]amino}pyridin-2-yl)-1H-1,2,3-triazol-1-yl]propane-1,2-diol] | 7.3 nM and 3.4 nM
Cc1cc(Nc2ncc(F)c(C(F)F)n2)cc(-c2cn(CC3OC(=O)NC3C)nn2)c1 (single isomer, unassigned) [Example 7.40, 5-{[4-(3-{[4-(difluoromethyl)-5-fluoropyrimidin-2-yl]amino}-5-methylphenyl)-1H-1,2,3-triazol-1-yl]methyl}-4-methyl-1,3-oxazolidin-2-one] | 25.7 nM
Cc1cc(Nc2cc(C(F)(F)F)ccn2)nc(-c2cn(CC3CCCCO3)nn2)c1 (racemic) [Example 5.4, 4-methyl-6-[1-(tetrahydro-2H-pyran-2-ylmethyl)-1H-1,2,3-triazol-4-yl]-N-[4-(trifluoromethyl)pyridin-2-yl]pyridin-2-amine] | 63.5 nM
Cc1cc(Nc2cc(C(F)(F)F)ccn2)nc(-c2cn(CCC(=O)O)nn2)c1 [Example 5.9, 3-[4-(4-methyl-6-{[4-(trifluoromethyl)pyridin-2-yl]amino}pyridin-2-yl)-1H-1,2,3-triazol-1-yl]propanoic acid] | 38.1 nM
Cc1cc(Nc2nccc(C(F)F)n2)cc(-c2cn(CC3(C)CNC(=O)O3)nn2)c1 (single isomer, unassigned) [Example 7.31, 5-{[4-(3-{[4-(difluoromethyl)pyrimidin-2-yl]amino}-5-methylphenyl)-1H-1,2,3-triazol-1-yl]methyl}-5-methyl-1,3-oxazolidin-2-one] | 8 nM
Cc1cc(Nc2cc(C(F)(F)F)ccn2)nc(-c2cn(CC3(N)CC3)nn2)c1 [Example 5.112, 6-{1-[(1-aminocyclopropyl)methyl]-1H-1,2,3-triazol-4-yl}-4-methyl-N-[4-(trifluoromethyl)pyridin-2-yl]pyridin-2-amine] | 17 nM
Cc1cc(Nc2cc(C(F)(F)F)ccn2)nc(-c2cn(C(C(N)=O)c3ccc(F)cc3)nn2)c1 (stereo not drawn) [Example 1.17, 2-(4-fluorophenyl)-2-[4-(4-methyl-6-{[4-(trifluoromethyl)pyridin-2-yl]amino}pyridin-2-yl)-1H-1,2,3-triazol-1-yl]acetamide] | 4.4 nM
Cc1cc(Nc2nccc(C(F)F)n2)cc(-c2cn(C3CCCC(C)(O)C3O)nn2)c1 (single isomer, unassigned) [Example 29.3, 3-(4-(3-((4-(Difluoromethyl)pyrimidin-2-yl)amino)-5-methylphenyl)-1H-1,2,3-triazol-1-yl)-1-methylcyclohexane-1,2-diol] | 10.5 nM
Cc1cc(Nc2nccc(C(F)F)n2)cc(-c2cn(CC3OC(=O)NC3C)nn2)c1 (single isomer, unassigned) [Example 7.42, 5-{[4-(3-{[4-(difluoromethyl)pyrimidin-2-yl]amino}-5-methylphenyl)-1H-1,2,3-triazol-1-yl]methyl}-4-methyl-1,3-oxazolidin-2-one] | 10.7 nM
Cc1cc(Nc2cc(C(F)F)ccn2)nc(-c2cn(C(C)C3CNC(=O)O3)nn2)c1 (single isomer, unassigned) [Example 7.10, 5-(1-(4-(6-((4-(difluoromethyl)pyridin-2-yl)amino)-4-methylpyridin-2-yl)-1H-1,2,3-triazol-1-yl)ethyl)oxazolidin-2-one] | 1.7 nM
Cc1cc(Nc2nccc(C(F)F)n2)cc(-c2cn(CC3CNC(=O)C3)nn2)c1 (single isomer, unassigned) [Example 28.1, 4-((4-(3-((4-(difluoromethyl)pyrimidin-2-yl)amino)-5-methylphenyl)-1H-1,2,3-triazol-1-yl)methyl)pyrrolidin-2-one] | 8.4 nM
Cc1cc(Nc2nccc(C(F)F)n2)cc(-c2cn(CC3CNC(=O)O3)nn2)c1 (single isomer, unassigned) [Example 7.5, 5-((4-(3-((4-(difluoromethyl)pyrimidin-2-yl)amino)-5-methylphenyl)-1H-1,2,3-triazol-1-yl)methyl)oxazolidin-2-one] | 7.1 nM
